“Also recorded” adds a separate entry of the source.
Legend:
Chick embryo DRG neurons [1] = assay: morphological/MTT assay of neuronal survival; assay type: cell-based; conditions: HPLC fractions of cyclized/oxidized, scrambled and linear P7
Experimental: (§1) Bioassays were performed as previously described (Manthorpe et al, "An automated colorimetric microassay for neuronotrophic factors", Dev. Brain Res. 25:191-198 (1986)). Dorsal root ganglia were dissected from embryonic day 8 chick embryos and placed in calcium and magnesium-free Dulbecco's balanced salt solution on ice. […] During this incubation non-neuronal cells (Schwann cells, fibroblasts) more readily attached to the substratum leaving a supernatant containing an enriched neuronal population (80-85% neurons). […]
(§2) The bioassays used for measuring the NGF agonist activity of the compounds of this invention were initially characterized using NGF as a control. […] The neurotrophic activity of NGF is most easily assessed by measuring the number of cells surviving and bearing neurites; however, the lack of neurites in peptide-supported cultures required the use of additional criteria to assess peptide effect. In order to more accurately determine neuronal survival, MTT was added to cultures at 16 hours and cultures assessed under phase contrast microscopy at 24 hours. Intact cells characteristic of surviving neurons which also contained blue MTT product were counted. […] In subsequent studies, activity of both peptides and NGF was assessed by counting the number of intact cells with blue MTT product (morphological/MTT assay) and by the automated MTT assay. […]

Chick embryo DRG neurons [2] = assay: automated MTT neurotrophic assay; assay type: cell-based; conditions: HPLC fractions of ten cyclized/oxidized NGF 29-36 region peptides
Experimental: as §1, §2

Chick embryo DRG neurons [3] = assay: neurite outgrowth of cultured neurons; assay type: cell-based
Experimental: as §1
Neuronal survival and neurite outgrowth were assessed by a combination of morphological criteria described previously (Longo et al, "The in vitro biological effect of nerve growth factor is inhibited by synthetic peptides" Cell Regulation 1:189-195 (1990)) and an MTT calorimetric assay (Manthorpe et al., "An automated colorimetric microassay for neuronotrophic factors", Dev. Brain Res. 25:191-198 (1986)). […] The blue product can be quantitated by lysing cells with acid alcohol to solubilize the blue product and measuring overall optical density or by counting the number per area of intact surviving neurons with blue dye. […] For each peptide or NGF concentration, duplicate wells were counted in each bioassay and four values (two strips counted/well) averaged. In other assays, cells were lysed at 24 hours in acid alcohol and the MTT product was dissolved and quantified. […]

NGF p75 receptor = molecular target: T1, NGF p75 receptor (Gallus gallus, UniProt P18519); assay: survival-promoting activity in the presence of p75 antiserum (antibody 9651); assay type: cell-based, chick; conditions: p75 antiserum 1:100 final dilution; morphological/MTT assay
T1 construct: Dorsal root ganglia were dissected from embryonic day 8 chick embryos; endogenous in cells; host or cells: primary neurons dissociated from embryonic day 8 chick dorsal root ganglia
T1 sequence (P18519 20-416): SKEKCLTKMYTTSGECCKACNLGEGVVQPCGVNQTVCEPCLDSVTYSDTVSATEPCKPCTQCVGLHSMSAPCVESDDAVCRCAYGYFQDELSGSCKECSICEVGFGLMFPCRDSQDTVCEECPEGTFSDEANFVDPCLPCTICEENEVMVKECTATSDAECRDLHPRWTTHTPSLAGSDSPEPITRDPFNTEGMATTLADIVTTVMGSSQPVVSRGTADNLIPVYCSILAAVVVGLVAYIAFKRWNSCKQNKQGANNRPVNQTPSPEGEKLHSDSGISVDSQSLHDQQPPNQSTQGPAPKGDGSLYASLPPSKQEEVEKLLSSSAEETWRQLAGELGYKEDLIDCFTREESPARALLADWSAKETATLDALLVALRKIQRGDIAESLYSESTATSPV
Experimental: Antiserum (antibody 9651) directed against the third and fourth cysteine rich repeats of the extracellular domain of mouse p75 was obtained as described in Huber (infra). […] Antiserum and control non-immune serum were tested at final dilutions of 1:100 in the presence of NGF or peptide.
To determine if activity of P7 and P7-scrambled peptides was dependent on p75 , their activity in the presence of p75 antiserum (1:100 final dilution) which inhibits NGF neurotrophic activity was measured. […] In 15 bioassays, control background survival was 14±2% (S.E.) of the NGF maximum compared to a background in the presence of p75 antiserum of 13±2% in 5 of the same 15 assays.

## IPenKGKEVCT [Peptide P7]
Chick embryo DRG neurons [1]
  survival-promoting activity of P7 forms (in words): showed activity; also recorded: significantly greater activity than P7-scrambled peptides
Chick embryo DRG neurons [2]
  survival-promoting activity (in words): highest activity at the lowest concentrations; also recorded: greatest survival-promoting activity at the lowest concentration
Chick embryo DRG neurons [3]
  neurite outgrowth (in words): continued to lack neurites

B1: NGF: Mouse submaxillary β-NGF purified via 7S NGF (protein, UniProt P01139 122-241, looked up)
Beta-nerve growth factor: SSTHPVFHMGEFSVCDSVSVWVGDKTTATDIKGKEVTVLAEVNINNSVFRQYFFETKCRASNPVESGCRGIDSKHWNSYCTTTHTFVKALTTDEKQAAWRFIRIDTACVCVLSRKATRRG
modifications: Beta-nerve growth factor
notes: Mouse submaxillary β-NGF purified via 7S NGF
NGF p75 receptor
  inhibition of survival-promoting activity by p75 antiserum, average over the three concentrations tested: 40%

Reference: patent US5958875A, “Synthetic peptides derivatives with nerve growth factor-like neurotrophic activity” (The Regents of the University of California, priority 1996, dated 1999)
